Results taken from patent US6858739B2, “Indole and benzimidazole 15-lipoxygenase inhibitors” (Warner-Lambert Company, priority 2000, dated 2005).

Key:
human 15-LO = target: T1, human 15-LO (Homo sapiens, UniProt P16050); assay: 15-LO inhibition, human enzyme; type: biochemical; conditions: linoleic acid as substrate
T1 sequence (P16050 1-662): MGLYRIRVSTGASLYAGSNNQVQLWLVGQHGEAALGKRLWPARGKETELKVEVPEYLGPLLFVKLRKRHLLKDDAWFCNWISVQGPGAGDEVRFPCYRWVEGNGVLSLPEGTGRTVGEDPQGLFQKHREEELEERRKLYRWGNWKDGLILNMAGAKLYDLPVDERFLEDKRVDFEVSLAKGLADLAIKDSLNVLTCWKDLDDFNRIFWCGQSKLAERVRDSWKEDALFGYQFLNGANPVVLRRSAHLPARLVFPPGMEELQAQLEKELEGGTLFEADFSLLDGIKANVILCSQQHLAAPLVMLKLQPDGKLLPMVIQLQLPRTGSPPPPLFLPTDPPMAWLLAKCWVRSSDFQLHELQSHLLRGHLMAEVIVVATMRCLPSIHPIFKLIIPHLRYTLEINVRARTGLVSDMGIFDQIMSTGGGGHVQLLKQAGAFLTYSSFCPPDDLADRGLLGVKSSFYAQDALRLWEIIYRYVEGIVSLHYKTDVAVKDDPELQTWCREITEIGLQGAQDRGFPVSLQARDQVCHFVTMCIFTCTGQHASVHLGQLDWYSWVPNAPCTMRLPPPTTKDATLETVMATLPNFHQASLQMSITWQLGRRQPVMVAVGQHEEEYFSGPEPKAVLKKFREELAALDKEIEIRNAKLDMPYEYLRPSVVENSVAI
Description: (§1) The compounds described above are effective inhibitors of 15-LO when evaluated in standard assays routinely utilized to measure 15-LO activity. Specifically, representative compounds were evaluated by the methods described by Auerbach et al., Analytical Biochemistry, 1992;201:375-380. Two in vitro assays were utilized, one utilizing rabbit reticulocyte 15-LO, the other using human 15-LO. Both used linoleic acid as substrate, to enzymatically produce a peroxide oxidation product known as 13(S)-HPODE. N-Benzoyl leucomethylene blue was utilized as a colorimetric reagent for detection and quantification of the peroxide formation. Also, HPLC was utilized to quantify the oxidation following incubation at 4° C. for 10 minutes.
(§2) Data Column 1 gives the concentration of compound required to inhibit 50% of the activity of 15-LO (IC50) when measured by the HPLC method of Auerbach et al. using rabbit enzymes, and data Column 2 gives data from human 15-LO enzyme.

[1] = target: T2, rabbit reticulocyte 15-LO (Oryctolagus cuniculus, UniProt P12530); assay: 15-LO inhibition, rabbit reticulocyte enzyme (HPLC method of Auerbach et al.); type: biochemical; conditions: linoleic acid as substrate, incubation at 4° C. for 10 minutes
T2 construct: one utilizing rabbit reticulocyte 15-LO; from tissue; host or cells: rabbit reticulocytes
T2 sequence (P12530 1-663): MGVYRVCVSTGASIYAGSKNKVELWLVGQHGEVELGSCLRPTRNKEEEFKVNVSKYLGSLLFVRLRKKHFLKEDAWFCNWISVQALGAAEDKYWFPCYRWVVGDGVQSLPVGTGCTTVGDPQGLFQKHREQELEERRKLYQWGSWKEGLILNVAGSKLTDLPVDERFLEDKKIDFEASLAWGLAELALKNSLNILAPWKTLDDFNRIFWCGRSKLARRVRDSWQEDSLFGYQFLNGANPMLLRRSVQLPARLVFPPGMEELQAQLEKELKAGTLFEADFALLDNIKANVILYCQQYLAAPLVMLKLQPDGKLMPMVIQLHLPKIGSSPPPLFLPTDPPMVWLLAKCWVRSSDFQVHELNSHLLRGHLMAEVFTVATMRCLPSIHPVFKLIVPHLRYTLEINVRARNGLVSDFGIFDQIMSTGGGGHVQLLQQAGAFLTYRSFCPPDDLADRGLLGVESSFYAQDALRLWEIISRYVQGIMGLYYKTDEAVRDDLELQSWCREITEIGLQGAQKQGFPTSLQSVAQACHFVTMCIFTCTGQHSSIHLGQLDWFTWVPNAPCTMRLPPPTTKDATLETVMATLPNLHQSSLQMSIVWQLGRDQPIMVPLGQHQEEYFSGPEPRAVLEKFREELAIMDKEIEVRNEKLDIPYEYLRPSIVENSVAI
Description: as §1, §2

Row | SMILES | IC50 (human 15-LO) [nM] | IC50 [1] [nM] | melting point [°C]
1 | COc1ccc(-c2cc3cc(F)c(F)cc3[nH]2)cc1NC(=S)Nc1cccnc1 [Example 41, 1-[5-(5,6-Difluoro-1H-indol-2-yl)-2-methoxy-phenyl]-3-pyridin-3-yl-thiourea] | 10 | 5 | 128 to 130
2 | COc1ccc(-c2cc3cc(F)c(F)cc3[nH]2)cc1NCc1ccc(C#N)cc1 [Example 50, [5-(5,6-Difluoro-1H-indol-2-yl)-2-methoxy-phenyl]-(4-cyano-benzyl)-amine] | 116 | 74 | 158 to 159

More lines, now with the values ahead:

Row | IC50 (human 15-LO) [nM] | IC50 [1] [nM] | melting point [°C] | SMILES
3 | 33 | 45 | 191 to 193 | COc1ccc(-c2cc3cc(F)c(F)cc3[nH]2)cc1NC(=S)NCCO [Example 37, 1-[5-(5,6-Difluoro-1H-indol-2-yl)-2-methoxy-phenyl]-3-(2-hydroxy-ethyl)-thiourea]
4 | 25 | 19 | 110 to 113 | COc1ccc(-c2cc3cc(F)c(F)cc3[nH]2)cc1NC(=S)NCCNC(=O)OC(C)(C)C [Example 38, (2-{3-[5-(5,6-Difluoro-1H-indol-2-yl)-2-methoxy-phenyl]-thioureido}-ethyl)-carbamic acid tert-butyl ester]
5 | 36 | 17 | 183 to 186 | COc1ccc(-c2cc3cc(F)c(F)cc3[nH]2)cc1NC(=S)Nc1ccc(F)c(F)c1 [Example 39, 1-[5-(5,6-Difluoro-1H-indol-2-yl)-2-methoxy-phenyl]-3-(3,4-difluoro-phenyl)-thiourea]
